Data published in patent US11213030B2, “4-(3,4-dihydronaphth-1-yl or 2H-chromen-4-yl)-5-hydroxy-2H-pyradizin-3-ones as herbicides” (FMC Corporation, priority 2017, dated 2022).

Tests used:
Format in all cases: in vivo
[1] = test system: foxtail, green (green foxtail, Setaria viridis); assay: Test A preemergence, green foxtail; conditions: 0 to 100 scale
Description: (§1) Seeds of plant species selected from barnyardgrass (Echinochloa crus-galli), kochia (Kochia scoparia), ragweed (common ragweed, Ambrosia elatior), ryegrass, It. (Italian ryegrass, Lolium multiflorum), foxtail, green (green foxtail, Setaria viridis), and pigweed (Amaranthus retroflexus) were planted into a blend of loam soil and sand and treated preemergence with a directed soil spray using test chemicals formulated in a non-phytotoxic solvent mixture which included a surfactant. At the same time, plants selected from these weed species and also wheat (Triticum aestivum), corn (Zea mays), blackgrass (Alopecurus myosuroides), and galium (catchweed bedstraw, Galium aparine) were planted in pots containing the same blend of loam soil and sand and treated with postemergence applications of test chemicals formulated in the same manner. Plants ranged in height from 2 to 10 cm and were in the one- to two-leaf stage for the postemergence treatment. Treated plants and untreated controls were maintained in a greenhouse for approximately 10 d, after which time all treated plants were compared to untreated controls and visually evaluated for injury. Plant response ratings, summarized in Table A, are based on a 0 to 100 scale where 0 is no effect and 100 is complete control. A dash (-) response means no test result.

[2] = test system: foxtail, green (green foxtail, Setaria viridis); assay: Test A postemergence, green foxtail; conditions: 0 to 100 scale
Description: as §1

[3] = test system: ragweed (common ragweed, Ambrosia elatior); assay: Test A postemergence, ragweed; conditions: 0 to 100 scale
Description: as §1

[4] = test system: barnyardgrass (Echinochloa crus-galli); assay: Test A postemergence, barnyardgrass; conditions: 0 to 100 scale
Description: as §1

[5] = test system: pigweed (Amaranthus retroflexus); assay: Test A postemergence, pigweed; conditions: 0 to 100 scale
Description: as §1

[6] = test system: ragweed (common ragweed, Ambrosia elatior); assay: Test A preemergence, ragweed; conditions: 0 to 100 scale
Description: as §1

[7] = test system: barnyardgrass (Echinochloa crus-galli); assay: Test A preemergence, barnyardgrass; conditions: 0 to 100 scale
Description: as §1

[8] = test system: wheat (Triticum aestivum); assay: Test A postemergence, wheat; conditions: 0 to 100 scale
Description: as §1

[9] = test system: blackgrass (Alopecurus myosuroides); assay: Test A postemergence, blackgrass; conditions: 0 to 100 scale
Description: as §1

kochia (Kochia scoparia) [10] = assay: Test A postemergence, kochia; conditions: 0 to 100 scale
Description: as §1

[11] = test system: ryegrass, It. (Italian ryegrass, Lolium multiflorum); assay: Test A postemergence, Italian ryegrass; conditions: 0 to 100 scale
Description: as §1

[12] = test system: pigweed (Amaranthus retroflexus); assay: Test A preemergence, pigweed; conditions: 0 to 100 scale
Description: as §1

kochia (Kochia scoparia) [13] = assay: Test A preemergence, kochia; conditions: 0 to 100 scale
Description: as §1

[14] = test system: ryegrass, It. (Italian ryegrass, Lolium multiflorum); assay: Test A preemergence, Italian ryegrass; conditions: 0 to 100 scale
Description: as §1

corn (Zea mays) = assay: Test A postemergence, corn; conditions: 0 to 100 scale
Description: as §1

[15] = test system: galium (catchweed bedstraw, Galium aparine); assay: Test A postemergence, galium; conditions: 0 to 100 scale
Description: as §1

[16] = test system: barnyardgrass (Echinochloa crus-galli); assay: Test B flooded paddy test, barnyardgrass; conditions: Flood, 250 g ai/ha applied to paddy water, 2-leaf stage, 13 to 15 d; scale of 0 to 100 where 0 is no effect and 100 is complete control
Method: (§2) Plant species in the flooded paddy test selected from rice (Oryza sativa), sedge, umbrella (small-flower umbrella sedge, Cyperus difformis), ducksalad (Heteranthera limosa), and barnyardgrass (Echinochloa crus-galli) were grown to the 2-leaf stage for testing. At the time of treatment, test pots were flooded to 3 cm above the soil surface, treated by application of test compounds directly to the paddy water, and then maintained at that water depth for the duration of the test. Treated plants and controls were maintained in a greenhouse for 13 to 15 d, after which time all species were compared to controls and visually evaluated. Plant response ratings, summarized in Table B, are based on a scale of 0 to 100 where 0 is no effect and 100 is complete control. A dash (-) response means no test result.

[17] = test system: sedge, umbrella (small-flower umbrella sedge, Cyperus difformis); assay: Test B flooded paddy test, umbrella sedge; conditions: Flood, 250 g ai/ha applied to paddy water, 2-leaf stage, 13 to 15 d; scale of 0 to 100 where 0 is no effect and 100 is complete control
Method: as §2

[18] = test system: ducksalad (Heteranthera limosa); assay: Test B flooded paddy test, ducksalad; conditions: Flood, 250 g ai/ha applied to paddy water, 2-leaf stage, 13 to 15 d; scale of 0 to 100 where 0 is no effect and 100 is complete control
Method: as §2

rice (Oryza sativa) = assay: Test B flooded paddy test, rice; conditions: Flood, 250 g ai/ha applied to paddy water, 2-leaf stage, 13 to 15 d; scale of 0 to 100 where 0 is no effect and 100 is complete control
Method: as §2

COc1c(C)nn(C)c(=O)c1C1=C(C)CCc2ccccc21 [Compound 1, 4-(3,4-dihydro-2-methyl-1-naphthalenyl)-5-methoxy-2,6-dimethyl-3(2H)-pyridazinone]
Plant response rating, Foxtail, Green ([1]; 1000 g ai/ha): 70 | Plant response rating, Foxtail, Green ([2]; 1000 g ai/ha): 60 | Plant response rating, Ragweed ([3]; 1000 g ai/ha): 90 | Plant response rating, Barnyardgrass ([4]; 1000 g ai/ha, 0 no effect, 100 complete control): 60 | Plant response rating, Pigweed ([5]; 1000 g ai/ha): 80 | Plant response rating, Ragweed ([6]; 1000 g ai/ha): 100 | Plant response rating, Barnyardgrass ([7]; 1000 g ai/ha): 80 | Plant response rating, Wheat ([8]; 1000 g ai/ha): 0 | Plant response rating, Blackgrass ([9]; 1000 g ai/ha): 70 | Plant response rating, Kochia (kochia (Kochia scoparia) [10]; 1000 g ai/ha): 20 | Plant response rating, Ryegrass, Italian ([11]; 1000 g ai/ha): 90 | Plant response rating, Pigweed ([12]; 1000 g ai/ha): 60 | Plant response rating, Kochia (kochia (Kochia scoparia) [13]; 1000 g ai/ha): 70 | Plant response rating, Ryegrass, It. ([14]; 1000 g ai/ha): 100 | Plant response rating, Corn (corn (Zea mays); 1000 g ai/ha): 10 | Plant response rating, Galium ([15]; 1000 g ai/ha): 100

CC1=C(c2c(O)c(C)nn(C)c2=O)c2cc(C)ccc2CC1 [Compound 4]
Plant response rating, Barnyardgrass [16]: 0 | Plant response rating, Foxtail, Green ([1]; 31 g ai/ha): 0 | Plant response rating, Foxtail, Green ([1]; 125 g ai/ha): 0 | Plant response rating, Foxtail, Green ([2]; 31 g ai/ha): 10 | Plant response rating, Foxtail, Green ([2]; 125 g ai/ha): 20 | Plant response rating, Sedge, Umbrella [17]: 0 | Plant response rating, Ducksalad [18]: 0 | Plant response rating, Ragweed ([3]; 31 g ai/ha): 0 | Plant response rating, Ragweed ([3]; 125 g ai/ha): 20 | Plant response rating, Barnyardgrass ([4]; 31 g ai/ha): 10 | Plant response rating, Barnyardgrass ([4]; 125 g ai/ha): 10 | Plant response rating, Rice (rice (Oryza sativa)): 0 | Plant response rating, Pigweed ([5]; 31 g ai/ha): 50 | Plant response rating, Pigweed ([5]; 125 g ai/ha): 70 | Plant response rating, Ragweed ([6]; 31 g ai/ha): 0 | Plant response rating, Ragweed ([6]; 125 g ai/ha): 0 | Plant response rating, Barnyardgrass ([7]; 31 g ai/ha): 0 | Plant response rating, Barnyardgrass ([7]; 125 g ai/ha): 0 | Plant response rating, Wheat ([8]; 31 g ai/ha): 0 | Plant response rating, Wheat ([8]; 125 g ai/ha): 0 | Plant response rating, Blackgrass ([9]; 31 g ai/ha): 0 | Plant response rating, Blackgrass ([9]; 125 g ai/ha): 0 | Plant response rating, Kochia (kochia (Kochia scoparia) [10]; 31 g ai/ha): 0 | Plant response rating, Kochia (kochia (Kochia scoparia) [10]; 125 g ai/ha): 20 | Plant response rating, Ryegrass, It. ([11]; 31 g ai/ha): 0 | Plant response rating, Ryegrass, It. ([11]; 125 g ai/ha): 20 | Plant response rating, Pigweed ([12]; 31 g ai/ha): 0 | Plant response rating, Pigweed ([12]; 125 g ai/ha): 0 | Plant response rating, Kochia (kochia (Kochia scoparia) [13]; 31 g ai/ha): 0 | Plant response rating, Kochia (kochia (Kochia scoparia) [13]; 125 g ai/ha): 0 | Plant response rating, Ryegrass, It. ([14]; 31 g ai/ha): 0 | Plant response rating, Ryegrass, It. ([14]; 125 g ai/ha): 0 | Plant response rating, Corn (corn (Zea mays); 31 g ai/ha): 0 | Plant response rating, Corn (corn (Zea mays); 125 g ai/ha): 0 | Plant response rating, Galium ([15]; 31 g ai/ha): 40 | Plant response rating, Galium ([15]; 125 g ai/ha): 70

CC1=C(c2c(O)c(C)nn(C)c2=O)c2ccccc2CC1 [Compound 2, 4-(3,4-dihydro-2-methyl-1-naphthalenyl)-5-hydroxy-2,6-dimethyl-3(2H)-pyridazinone]
Plant response rating, Barnyardgrass [16]: 0 | Plant response rating, Foxtail, Green ([1]; 125 g ai/ha): 0 | Plant response rating, Foxtail, Green ([1]; 500 g ai/ha): 0 | Plant response rating, Foxtail, Green ([2]; 125 g ai/ha): 10 | Plant response rating, Foxtail, Green ([2]; 500 g ai/ha): 70 | Plant response rating, Sedge, Umbrella [17]: 0 | Plant response rating, Ducksalad [18]: 0 | Plant response rating, Ragweed ([3]; 125 g ai/ha): 80 | Plant response rating, Ragweed ([3]; 500 g ai/ha): 90 | Plant response rating, Barnyardgrass ([4]; 125 g ai/ha): 0 | Plant response rating, Barnyardgrass ([4]; 500 g ai/ha): 20 | Plant response rating, Rice (rice (Oryza sativa)): 0 | Plant response rating, Pigweed ([5]; 125 g ai/ha): 80 | Plant response rating, Pigweed ([5]; 500 g ai/ha): 90 | Plant response rating, Ragweed ([6]; 125 g ai/ha): 40 | Plant response rating, Ragweed ([6]; 500 g ai/ha): 90 | Plant response rating, Barnyardgrass ([7]; 125 g ai/ha): 0 | Plant response rating, Barnyardgrass ([7]; 500 g ai/ha): 0 | Plant response rating, Wheat ([8]; 125 g ai/ha): 0 | Plant response rating, Wheat ([8]; 500 g ai/ha): 0 | Plant response rating, Blackgrass ([9]; 125 g ai/ha): 0 | Plant response rating, Blackgrass ([9]; 500 g ai/ha): 20 | Plant response rating, Kochia (kochia (Kochia scoparia) [10]; 125 g ai/ha): 80 | Plant response rating, Kochia (kochia (Kochia scoparia) [10]; 500 g ai/ha): 90 | Plant response rating, Ryegrass, It. ([11]; 125 g ai/ha): 60 | Plant response rating, Ryegrass, Italian ([11]; 500 g ai/ha): 100 | Plant response rating, Pigweed ([12]; 125 g ai/ha): 0 | Plant response rating, Pigweed ([12]; 500 g ai/ha): 80 | Plant response rating, Kochia (kochia (Kochia scoparia) [13]; 125 g ai/ha): 0 | Plant response rating, Kochia (kochia (Kochia scoparia) [13]; 500 g ai/ha): 80 | Plant response rating, Ryegrass, It. ([14]; 125 g ai/ha): 40 | Plant response rating, Ryegrass, It. ([14]; 500 g ai/ha): 50 | Plant response rating, Corn (corn (Zea mays); 125 g ai/ha): 10 | Plant response rating, Corn (corn (Zea mays); 500 g ai/ha): 10 | Plant response rating, Galium ([15]; 125 g ai/ha): 90 | Plant response rating, Galium ([15]; 500 g ai/ha): 100

CC1=C(c2c(O)c(C)nn(C)c2=O)c2ccccc2OC1 [Compound 3, 5-hydroxy-2,6-dimethyl-4-(3-methyl-2H-1-benzopyran-4-yl)-3(2H)-pyridazinone]
Plant response rating, Barnyardgrass [16]: 0 | Plant response rating, Foxtail, Green ([1]; 125 g ai/ha): 0 | Plant response rating, Foxtail, Green ([1]; 500 g ai/ha): 0 | Plant response rating, Foxtail, Green ([2]; 125 g ai/ha): 0 | Plant response rating, Foxtail, Green ([2]; 500 g ai/ha): 20 | Plant response rating, Sedge, Umbrella [17]: 50 | Plant response rating, Ducksalad [18]: 0 | Plant response rating, Ragweed ([3]; 125 g ai/ha): 60 | Plant response rating, Ragweed ([3]; 500 g ai/ha): 90 | Plant response rating, Barnyardgrass ([4]; 125 g ai/ha): 0 | Plant response rating, Barnyardgrass ([4]; 500 g ai/ha): 10 | Plant response rating, Rice (rice (Oryza sativa)): 0 | Plant response rating, Pigweed ([5]; 125 g ai/ha): 80 | Plant response rating, Pigweed ([5]; 500 g ai/ha): 100 | Plant response rating, Ragweed ([6]; 125 g ai/ha): 0 | Plant response rating, Ragweed ([6]; 500 g ai/ha): 50 | Plant response rating, Barnyardgrass ([7]; 125 g ai/ha): 0 | Plant response rating, Barnyardgrass ([7]; 500 g ai/ha): 0 | Plant response rating, Wheat ([8]; 125 g ai/ha): 0 | Plant response rating, Wheat ([8]; 500 g ai/ha): 0 | Plant response rating, Blackgrass ([9]; 125 g ai/ha): 0 | Plant response rating, Blackgrass ([9]; 500 g ai/ha): 10 | Plant response rating, Kochia (kochia (Kochia scoparia) [10]; 125 g ai/ha): 70 | Plant response rating, Kochia (kochia (Kochia scoparia) [10]; 500 g ai/ha): 90 | Plant response rating, Ryegrass, It. ([11]; 125 g ai/ha): 10 | Plant response rating, Ryegrass, Italian ([11]; 500 g ai/ha): 60 | Plant response rating, Pigweed ([12]; 125 g ai/ha): 10 | Plant response rating, Pigweed ([12]; 500 g ai/ha): 60 | Plant response rating, Kochia (kochia (Kochia scoparia) [13]; 125 g ai/ha): 10 | Plant response rating, Kochia (kochia (Kochia scoparia) [13]; 500 g ai/ha): 30 | Plant response rating, Ryegrass, It. ([14]; 125 g ai/ha): 0 | Plant response rating, Ryegrass, It. ([14]; 500 g ai/ha): 10 | Plant response rating, Corn (corn (Zea mays); 125 g ai/ha): 0 | Plant response rating, Corn (corn (Zea mays); 500 g ai/ha): 10
